# According to BindingDB's records for doi:10.1021/acs.jmedchem.5b01559 (University of Siena, 2016):
# Molecular target: Cannabinoid receptor 2 (Homo sapiens, UniProt P34972)
# Test: Displacement of [3H]-CP-55940 from human recombinant CB2 receptor expressed in HEK293 cells after 90 mins by Competition binding assay
# Sequence of Cannabinoid receptor 2 (P34972 whole entry): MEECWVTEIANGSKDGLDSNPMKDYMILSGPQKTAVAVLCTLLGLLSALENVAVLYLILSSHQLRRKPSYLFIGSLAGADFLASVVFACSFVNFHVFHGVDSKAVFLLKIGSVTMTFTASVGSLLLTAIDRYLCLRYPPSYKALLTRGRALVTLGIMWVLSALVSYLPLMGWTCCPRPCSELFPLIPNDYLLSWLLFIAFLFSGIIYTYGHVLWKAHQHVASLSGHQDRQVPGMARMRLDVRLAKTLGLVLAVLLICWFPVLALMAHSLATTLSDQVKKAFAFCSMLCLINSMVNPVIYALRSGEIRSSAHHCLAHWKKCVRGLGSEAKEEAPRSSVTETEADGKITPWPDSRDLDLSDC
row,Compound,Ki [nM]
1,CCCCCn1c(=O)c(C(=O)NC23CC4CC(CC(C4)C2)C3)c(O)c2cc(C(C)C)ccc21,0.53
2,CCCCCn1c(=O)c(C(=O)NC23CC4CC(CC(C4)C2)C3)c(O)c2ccc(F)cc21,0.93
3,CC(C)c1ccc2c(c1)c(=O)c(C(=O)NC13CC4CC(CC(C4)C1)C3)cn2CCN(C)C,146
4,COCCOCn1cc(C(=O)NC23CC4CC(CC(C4)C2)C3)c(=O)c2cc(C(C)C)ccc21,480
5,CC(C)c1ccc2c(c1)c(=O)c(C(=O)NC13CC4CC(CC(C4)C1)C3)cn2CCN1CCS(=O)(=O)CC1,1930
6,CN(C)CCn1cc(C(=O)NC23CC4CC(CC(C4)C2)C3)c(=O)c2ccc(F)cc21,60
7,COCCOCn1cc(C(=O)NC23CC4CC(CC(C4)C2)C3)c(=O)c2ccc(F)cc21,56
8,O=C(NC12CC3CC(CC(C3)C1)C2)c1cn(CCN2CCS(=O)(=O)CC2)c2cc(F)ccc2c1=O,246
9,CC(C)c1cc2c(=O)c(C(=O)NC34CC5CC(CC(C5)C3)C4)cn(CCN(C)C)c2cc1F,11
10,CCCCCn1c(=O)c(C(=O)NC23CC4CC(CC(C4)C2)C3)c(O)c2cc(C(C)C)c(F)cc21,66
11,O=C(NCC1CCCCC1)c1c(O)c2ccccc2n(CCCCO)c1=O,41
12,O=C(NCc1ccc(F)cc1)c1c(O)c2cc(-c3ccco3)ccc2n(CCCCO)c1=O,253
13,COc1ccc(CNC(=O)c2c(O)c3cc(-c4cccs4)ccc3n(CCCCO)c2=O)cc1,2240
14,CCCCCn1c(=O)c(C(=O)NCc2ccc(OC)cc2)c(O)c2cc(-c3cccs3)ccc21,20
